Reference: US20250170266A1 (ZYMEWORKS BC INC., priority 2022, published 2025)
Read-outs that look alike come from different tables or passages of the source.

Experiments:
Assay type in all cases: cell-based
Mouse splenocytes = experiment: Mouse Splenocyte Assay, cytokine release (HTRF); details: 24 hours, mIL6 in supernatant; for EC50: Splenocyte, read-out: Splenocyte IL6 EC50
Outline: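 Splenocytes from female balb/c nude mice, thawed, 100,000 per well in RPMI + 10% FBS. Exposed for 24 h at 37 °C to a 4-fold 11-point compound titration from 15 μM; supernatant mIL6 and mTNFα measured by HTRF.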

[1] = tested on: Human peripheral blood mononuclear cells (PBMCs); experiment: Human PBMC Assay, cytokine release (HTRF); details: 24 hours; for EC50: PBMC
Outline: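 Cryopreserved human PBMCs, rested overnight with 10 ng/ml hIL3, then 300,000 cells/well treated 24 h at 37° C with compound (4-fold, 11-point titration from 15 μM) in RPMI+10% FBS. Supernatant hIL6, hTNFα and hIFNα measured by HTRF; growth medium as negative control.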

hTLR7 = biological target: T1, hTLR7 (Homo sapiens, UniProt Q9NYK1); experiment: Reporter Gene Assay (RGA), HEK-Blue hTLR7 reporter cells, SEAP readout; details: overnight incubation, SEAP absorbance 620 nm
T1 construct: host or cells: HEK-Blue hTLR7 reporter cells (HEK293-derived, own knowledge)
T1 sequence (Q9NYK1 27-1049): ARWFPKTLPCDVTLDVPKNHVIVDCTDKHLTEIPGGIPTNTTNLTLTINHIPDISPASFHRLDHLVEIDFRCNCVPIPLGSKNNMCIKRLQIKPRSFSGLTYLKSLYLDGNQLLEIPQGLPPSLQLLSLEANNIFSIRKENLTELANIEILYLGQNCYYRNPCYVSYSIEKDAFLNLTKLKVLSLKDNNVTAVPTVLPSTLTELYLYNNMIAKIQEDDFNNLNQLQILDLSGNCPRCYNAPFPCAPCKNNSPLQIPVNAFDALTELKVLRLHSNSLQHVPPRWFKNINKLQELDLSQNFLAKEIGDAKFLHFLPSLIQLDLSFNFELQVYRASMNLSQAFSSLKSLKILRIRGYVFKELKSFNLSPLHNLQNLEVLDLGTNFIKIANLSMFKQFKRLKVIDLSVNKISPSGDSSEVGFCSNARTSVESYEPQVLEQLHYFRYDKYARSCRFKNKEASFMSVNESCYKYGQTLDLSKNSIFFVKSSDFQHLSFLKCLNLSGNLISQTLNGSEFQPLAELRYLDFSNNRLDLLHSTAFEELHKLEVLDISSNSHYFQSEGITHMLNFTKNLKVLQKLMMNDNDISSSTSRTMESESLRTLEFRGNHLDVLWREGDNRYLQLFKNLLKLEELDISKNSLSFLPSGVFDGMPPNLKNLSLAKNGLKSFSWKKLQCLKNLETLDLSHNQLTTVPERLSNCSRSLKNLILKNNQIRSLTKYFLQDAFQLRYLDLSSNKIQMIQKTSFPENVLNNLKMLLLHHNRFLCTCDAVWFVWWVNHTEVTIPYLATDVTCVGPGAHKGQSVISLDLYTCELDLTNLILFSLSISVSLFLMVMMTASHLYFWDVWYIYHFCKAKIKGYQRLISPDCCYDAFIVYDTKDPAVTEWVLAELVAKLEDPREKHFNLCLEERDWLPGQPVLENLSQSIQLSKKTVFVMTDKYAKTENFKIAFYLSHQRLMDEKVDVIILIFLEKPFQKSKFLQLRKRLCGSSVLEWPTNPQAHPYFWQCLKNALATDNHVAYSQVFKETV
Outline: (§1)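 HEK-Blue reporter cells expressing human or mouse TLR7 (1.5×10^4 cells) were treated with an 11-point, 4-fold compound titration from 15 pM in HEK-Blue Detection medium. Incubation was overnight at 37° C with 5% CO2. Secreted embryonic alkaline phosphatase was read as absorbance at 620 nm.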

mTLR7 = biological target: T2, mTLR7 (Mus musculus, UniProt P58681); experiment: Reporter Gene Assay (RGA), HEK-Blue mTLR7 reporter cells, SEAP readout; details: overnight incubation, SEAP absorbance 620 nm
T2 construct: host or cells: HEK-Blue mTLR7 reporter cells (HEK293-derived, own knowledge)
T2 sequence (P58681 27-1050): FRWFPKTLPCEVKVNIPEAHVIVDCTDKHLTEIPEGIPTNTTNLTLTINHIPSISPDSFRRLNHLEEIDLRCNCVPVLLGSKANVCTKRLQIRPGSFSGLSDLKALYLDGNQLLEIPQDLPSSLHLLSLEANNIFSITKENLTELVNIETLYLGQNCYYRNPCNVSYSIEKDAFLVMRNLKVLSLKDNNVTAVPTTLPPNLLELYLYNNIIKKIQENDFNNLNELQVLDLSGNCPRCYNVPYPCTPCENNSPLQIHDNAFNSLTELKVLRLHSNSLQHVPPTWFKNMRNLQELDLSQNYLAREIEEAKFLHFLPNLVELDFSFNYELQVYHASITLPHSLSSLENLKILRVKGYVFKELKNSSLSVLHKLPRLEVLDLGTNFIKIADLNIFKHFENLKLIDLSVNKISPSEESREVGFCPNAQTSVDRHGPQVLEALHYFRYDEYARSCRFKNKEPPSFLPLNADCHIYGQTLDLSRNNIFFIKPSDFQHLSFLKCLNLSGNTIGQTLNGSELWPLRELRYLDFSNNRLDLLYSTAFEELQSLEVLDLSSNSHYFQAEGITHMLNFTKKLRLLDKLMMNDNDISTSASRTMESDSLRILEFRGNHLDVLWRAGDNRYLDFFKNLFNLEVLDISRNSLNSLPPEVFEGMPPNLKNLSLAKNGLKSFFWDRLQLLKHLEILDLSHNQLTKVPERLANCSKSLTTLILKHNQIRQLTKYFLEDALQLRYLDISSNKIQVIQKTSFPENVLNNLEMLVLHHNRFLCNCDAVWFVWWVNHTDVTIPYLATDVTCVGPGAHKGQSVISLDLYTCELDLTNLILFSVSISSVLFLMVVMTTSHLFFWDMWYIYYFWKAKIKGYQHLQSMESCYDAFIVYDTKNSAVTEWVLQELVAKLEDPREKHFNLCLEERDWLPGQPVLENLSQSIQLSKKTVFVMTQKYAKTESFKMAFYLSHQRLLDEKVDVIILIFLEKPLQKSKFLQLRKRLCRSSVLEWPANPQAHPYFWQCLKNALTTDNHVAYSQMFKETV
Outline: as §1

[2] = hIFNα in supernatant, EC50 values approximated and divided into groups, read-out: PBMC IFNa EC50
[3] = hIL6 in supernatant, read-out: PBMC IL6 EC50

Row | SMILES | EC50 (Mouse splenocytes) [nM] | EC50 (hTLR7) [nM] | EC50 (mTLR7) [nM] | Splenocyte IL6 EC50 (nM) (Mouse splenocytes) | EC50 [1, 2] [nM] | EC50 [1, 3] [nM] | PBMC IL6 EC50 (nM) ([1]; hIL6 in supernatant)
1 | CCCCCNc1nc(N)c2nc(O)n(Cc3ccc(CNCC(C)(C)O)cc3)c2n1 [Compound 184, 6-amino-9-(4-(((2-hydroxy-2-methylpropyl)amino)methyl)benzyl)-2-(pentyl-amino)-9H-purin-8-ol] | 144 | 278 | 20.4 | – | 0.1 to 1 | 29.2 | –
2 | CCCCCNc1nc(N)c2nc(O)n(Cc3ccc(CN(CC)CC)cc3)c2n1 [Compound 185, 6-amino-9-(4-((diethylamino)methyl)benzyl)-2-(pentylamino)-9H-purin-8-ol] | 20.4 | 10 | 1 | – | 1 to 10 | 12.6 | –
3 | CCCCCNc1nc(N)c2nc(O)n(Cc3ccc(CNC4CC(F)(F)C4)cc3)c2n1 [Compound 186, 6-amino-9-(4-(((3,3-difluorocyclobutyl)amino)methyl)benzyl)-2-(pentyl-amino)-9H-purin-8-ol] | – | 452 | 11.1 | inactive | > 10 | – | inactive
4 | CCCCCNc1nc(N)c2nc(O)n(Cc3ccc(CN4CCNCC4)cc3)c2n1 [Compound 187, 6-amino-2-(pentylamino)-9-(4-(piperazin-1-ylmethyl)benzyl)-9H-purin-8-ol] | 131 | 94 | 9 | – | 0.1 to 1 | 9 | –
5 | CCCCCNc1nc(N)c2nc(O)n(Cc3ccc(CN4CCC(N)CC4)cc3)c2n1 [Compound 188, 6-amino-9-(4-((4-aminopiperidin-1-yl)methyl)benzyl)-2-(pentylamino)-9H-purin-8-ol] | 198 | 351 | 26.2 | – | 1 to 10 | 19.6 | –
6 | CCCCCNc1nc(N)c2nc(O)n(Cc3ccc(CNCCN)cc3)c2n1 [Compound 189, 6-amino-9-(4-(((2-aminoethyl)amino)methyl)benzyl)-2-(pentylamino)-9H-purin-8-ol] | 80.6 | 698 | 41 | – | 1 to 10 | 151 | –
7 | CCCCCNc1nc(N)c2nc(O)n(Cc3ccc(CNCCCCN)cc3)c2n1 [Compound 190, 6-amino-9-(4-(((4-aminobutyl)amino)methyl)benzyl)-2-(pentylamino)-9H-purin-8-ol] | 106 | 1420 | 80.8 | – | 1 to 10 | 131 | –

Continued, in another order:

Row | EC50 (Mouse splenocytes) [nM] | EC50 (hTLR7) [nM] | EC50 (mTLR7) [nM] | Splenocyte IL6 EC50 (nM) (Mouse splenocytes) | SMILES | EC50 [1, 2] [nM] | EC50 [1, 3] [nM] | PBMC IL6 EC50 (nM) ([1]; hIL6 in supernatant)
8 | 45.9 | 29 | 0.5 | – | CCCCCNc1nc(N)c2nc(O)n(Cc3ccc(CNCc4ccc(CN)cc4)cc3)c2n1 [Compound 191, 6-amino-9-(4-(((4-(aminomethyl)benzyl)amino)methyl)benzyl)-2-(pentyl-amino)-9H-purin-8-ol] | < 0.1 | – | –
9 | – | 51.4 | 681 | inactive | CCOc1nc(N)c2nc(O)n(Cc3ccc(CN4CCNCC4)nc3)c2n1 [Compound 192, 6-amino-2-ethoxy-9-((6-(piperazin-1-ylmethyl)pyridin-3-yl)methyl)-9H-purin-8-ol] | > 10 | 202 | –
10 | 48.2 | 60 | 5.9 | – | CCOc1nc(N)c2nc(O)n(Cc3ccc(CNCc4cccnc4)cc3OC)c2n1 [Compound 193] | 0.1 to 1 | 109 | –
11 | 1390 | 311 | 35.9 | – | CCCCCNc1nc(N)c2nc(O)n(Cc3ccc(CNC4CCNCC4)cc3)c2n1 [Compound 194, 6-amino-2-(pentylamino)-9-(4-((piperidin-4-ylamino)methyl)benzyl)-9H-purin-8-ol] | 1 to 10 | 1100 | –
12 | 1000 | 1750 | 127 | – | CCCCCNc1nc(N)c2nc(O)n(Cc3ccc(CNCCN4CCNCC4)cc3)c2n1 [Compound 195, 6-amino-2-(pentylamino)-9-(4-(((2-(piperazin-1-yl)ethyl)amino)methyl)-benzyl)-9H-purin-8-ol] | – | 791 | –
